Reference: publication PMC12239085, “Silver(I) Ions Bridging Oxadiazole-2-thione Derivatives with Mitochondriotropic Agents: A Promising Strategy for Potent Anticancer Chemotherapy” (Inorganic Chemistry, 2025)
Where “and” joins values, the source holds several entries; their conditions need not be identical. Equal entries are not always repeated. Where two headings read alike, the source gives them in different places.

Experiments:
[1] = system: normal human fetal lung fibroblast (MRC-5) cells; test: SRB toxicity assay, MRC-5; format: cell-based; conditions: 48 h incubation
Procedure: (§1) Stock solutions of compounds 1a–5a and 1–5 (0.01 M) in DMSO were freshly prepared and subsequently diluted with cell culture media to appropriate concentrations for various biological experiments. These included the assessment of cell viability using the SRB assay, micronucleus testing, cell morphology studies, cell cycle arrest, AO/EB staining, and mitochondrial membrane permeabilization tests. For CT-DNA binding studies, experiments were conducted in DMSO/buffer solutions. All biological experiments were performed in triplicate or more.
(§2) Stock solutions of 1a–5a and 1–5 (0.01 M) were dissolved in DMSO and subsequently diluted with cell culture medium to the desired concentrations (0.5–30 μM). MCF-7, MDA MB-231, and MRC-5 cells were plated in 96-well flat-bottom microplates at various densities: 6000, 8000, and 2000 cells per well, respectively. The cells were incubated for 24 h at 37 °C and then exposed to 1a–5a and 1–5 for 48 h. ,–
(§3) Cytotoxicity was evaluated using the SRB colorimetric assay at λ = 568 nm, with cell survival percentages calculated relative to the untreated control cells. Detailed information on the SRB assay procedure can be found in the previous publication. ,–

[2] = system: MCF-7 cells; test: Cell cycle arrest, flow cytometry; format: cell-based, human; conditions: for cell population in sub-G1 phase / cell population in G0/G1 phase / cell population in S phase: MCF-7, IC50 values, 48 h; for cell population in sub-G1 phase: untreated 5.1%; for cell population in G0/G1 phase: untreated 38.8%; for cell population in S phase: untreated 9.4%
Procedure: The MCF-7 cells were seeded into a 24-well plate (70,000 cells per well) and cultured at 37 °C for 24 h. […] For each sample, 10,000 events were recorded. The resulting DNA histograms were drawn and quantified using the FlowJo software (version FlowJo X 10.0.7r2). This assay was performed as reported previously. ,–

[3] = system: MRC-5 cells; test: In vitro micronucleus (MN) assay; format: cell-based, human; conditions: for Percentage of MN: IC50 values, control 2.9 ± 0.2
Procedure: MRC-5 cells were seeded at a density of 2 × 10^4 cells/well onto glass coverslips, which were placed in six-well plates containing 3 mL of cell culture medium and incubated for 24 h. […] After exposure, the coverslips were washed three times with PBS and treated with a hypotonic solution (75 mM KCl) for 10 min at room temperature. The hypotonized cells were fixed with at least three changes of a 1/3 acetic acid/methanol solution. Following fixation, the coverslips were washed with cold methanol containing 1% acetic acid. Acridine orange staining (50 μg/mL) was applied for 15 min at 37 °C, after which the coverslips were rinsed three times with PBS to remove any excess stain. The number of micronucleated cells per 1000 cells was then counted. ,– ,

[4] = system: MCF-7 cells; test: Mitochondrial membrane permeabilization (MMP) assay; format: cell-based, human; conditions: MCF-7, IC50 values, 48 h
From the text: The assay relies on the fluorescence of a cationic hydrophobic dye, which accumulates in the mitochondrial membrane. Any quenching of the dye’s emitted fluorescence is attributed to the disruption of the mitochondrial membrane, resulting in the release of cytochrome C into the cytosol. ,− The percentage of fluorescence quenching in MCF-7 cells treated with compounds 1–5 is up to 20.7%, with the specific values being 20.0% (1), 20.7% (2), 2.9% (3), 5.1% (4), and 9.6% (5). […] Consequently, cell morphology, AO/EB staining, cell cycle arrest and MMP studies indicate that compounds 1–5 induce apoptosis in MCF-7 cells, primarily through direct or indirect interaction with DNA.
The MMP assay was conducted using the ″Mitochondria Membrane Potential Kit for Microplate Readers″ (MAK147), purchased from Sigma-Aldrich. MCF-7 cells were treated with 1–5 at their IC50 concentration. Fluorescence intensity was measured at an excitation wavelength of λex = 540 nm and an emission wavelength of λem = 590 nm. The experimental results included fluorescence intensities from the treated and untreated cell solutions. ,–

[5] = system: MCF-7 human breast adenocarcinoma cells (hormone-dependent); test: SRB antiproliferative assay, MCF-7; format: cell-based; conditions: for IC50: SRB assay, 48 h incubation; for pIC50 MCF-7: p(IC50)= -Log(IC50), Table S4, this study
Procedure: as §1, §2, §3

[6] = system: calf thymus (CT)-DNA; test: CT-DNA-EB fluorescence displacement; format: binding; conditions: for quenching of fluorescence intensity of EB-DNA at 588 nm: EB 2.3 μM, CT-DNA 26 μM, complex 0–600 μM; for apparent binding constant K app: EB displacement
Procedure: The DNA-complex binding properties can also be studied by fluorescent spectroscopy can also be studied by fluorescent spectroscopy. ,– EB emits intense fluorescence in the presence of DNA due to its strong intercalation between adjacent DNA base pairs. As EB binds to DNA […], its displacement by a compound could indicate either intercalative binding or minor groove interaction, among other possibilities. ,– The emission spectra of the CT-DNA-EB complex were recorded in both the absence and presence of compounds 1–5 (Figure S29). The fluorescence intensity at λmax ^em = 588 nm was quenched by 60.2 (1). 58.5 (2), 62.0 (3), 61.9 (4) and 61.6 (5) %, for 1–5 respectively, compared to the initial fluorescence intensity of the EB-DNA solution.
The fluorescence spectroscopy method using EB was employed to determine the relative DNA binding properties of complexes 1–5 into CT-DNA. The emission spectra at 588 nm of EB (2.3 μM) solutions which contain CT-DNA (26 μM) in the absence or presence of various concentrations of complexes 1–5 (0–600 μM) were recorded upon their excitation at 527 nm. ,− The apparent binding constant (K app) was calculated using the equation: KEB*[EB]=Kapp*[DNA binder] where [DNA binder] is the concentration of the complex at a 50% reduction of the fluorescence, K EB= 10^7 M^–1, and [EB] = 2.3 μM. ,−
The concentration of the drug required to achieve a 50% reduction in fluorescence is determined from the plot of I o/I versus the concentration of the complex [DNA binder], Io/I=1+KSV*[DNA binder] where I o and I represent the fluorescence intensities of CT-DNA in the absence and presence of complexes 1–5, respectively. K SV is the Stern–Volmer dynamic quenching constant and [DNA binder] is the total concentration of the quencher (complexes 1–5). ,−

[7] = system: nontumorigenic human breast epithelial cell line (MCF-10A); test: SRB toxicity assay, MCF-10A; format: cell-based; conditions: 48 h incubation
Procedure: The toxicity of 1–5 was also evaluated against normal human fetal lung fibroblast (MRC-5) cells. Their IC50 values lie from 2.7 to 4.1 μM (Table ). The toxicity of these compounds was also evaluated against the nontumorigenic human breast epithelial cell line (MCF-10A), which is widely used as a model for normal human breast cells. They closely resemble normal human mammary epithelial cells in structure and are regulated by hormones and growth factors.
as §3

| SMILES | IC50 [1] [µM] | Relative rate of MCF-7 cells in sub-G1 phase compared to untreated cells [2] | cell population in sub-G1 phase [2] [%] | cell population in G0/G1 phase [2] [%] | Relative ratio of MN in respect to untreated cells [3] [fold] | Relative ratio of MN in respect to untreated cells ([3]; 48 h) | Percentage of MN ([3]; 48 h) [%] | percentage of fluorescence quenching (MMP) [4] [%] | IC50 [5] [µM] | pIC50 MCF-7 [5] | quenching of fluorescence intensity of EB-DNA at 588 nm [6] [%] | apparent binding constant K app [6] | IC50 [7] [µM] | cell population in S phase [2] [%] | fold higher increase in MCF-7 sub-G1 population compared to the other compounds and cisplatin [2] [fold] |
| --- | --- | --- | --- | --- | --- | --- | --- | --- | --- | --- | --- | --- | --- | --- | --- |
| Fc1ccccc1-c1nnc([S][Ag]([PH](c2ccccc2)(c2ccccc2)c2ccccc2)([PH](c2ccccc2)(c2ccccc2)c2ccccc2)[PH](c2ccccc2)(c2ccccc2)c2ccccc2)o1 [compound 2] | 3.12 ± 0.11 | 1.7 | 8.9 | 76.9 | 1.24 | 1.2 and 1.24 | 3.6 ± 0.5 | 20.7 | 2.5 ± 0.19 | 5.6 | 58.5 | 6.7 × 10^4 M^–1 | 13.9 |  |  |
| Fc1ccc(-c2nnc([S][Ag]([PH](c3ccccc3)(c3ccccc3)c3ccccc3)([PH](c3ccccc3)(c3ccccc3)c3ccccc3)[PH](c3ccccc3)(c3ccccc3)c3ccccc3)o2)cc1 [compound 3] | 2.72 ± 0.19 | 2.5 | 12.8 | 72.0 | 1.31 | 1.3 and 1.31 | 3.8 ± 0.2 | 2.9 | 2.15 ± 0.16 | 5.7 | 62.0 | 7.0 × 10^4 M^–1 | 10.9 |  |  |
| c1ccc(-c2nnc([S][Ag]([PH](c3ccccc3)(c3ccccc3)c3ccccc3)([PH](c3ccccc3)(c3ccccc3)c3ccccc3)[PH](c3ccccc3)(c3ccccc3)c3ccccc3)o2)cc1 [compound 1] | 3.77 ± 0.16 | 2.8 | 14.5 |  | 1.38 | 1.4 and 1.38 | 4.0 ± 0.6 | 20.0 | 2.03 ± 0.09 | 5.7 | 60.2 | 6.3 × 10^4 M^–1 | 10.6 | 15.4 |  |
| Clc1cccc(-c2nnc([S][Ag]([PH](c3ccccc3)(c3ccccc3)c3ccccc3)([PH](c3ccccc3)(c3ccccc3)c3ccccc3)[PH](c3ccccc3)(c3ccccc3)c3ccccc3)o2)c1 [compound 5] | 2.89 ± 0.08 | 8.1 | 41.1 |  |  | 2.3 and 2.34 | 6.8 ± 1.5 | 9.6 | 1.69 ± 0.08 | 5.8 | 61.6 | 6.5 × 10^4 M^–1 | 16.1 | 48.3 |  |
| Clc1ccccc1-c1nnc([S][Ag]([PH](c2ccccc2)(c2ccccc2)c2ccccc2)([PH](c2ccccc2)(c2ccccc2)c2ccccc2)[PH](c2ccccc2)(c2ccccc2)c2ccccc2)o1 [compound 4] | 4.07 ± 0.24 | 2.6 |  |  | 1.69 | 1.7 and 1.69 | 4.9 ± 0.5 | 5.1 | 3 ± 0.15 | 5.5 | 61.9 | 6.9 × 10^4 M^–1 | 16 | 26.5 | 3 |
